The source of these data is patent US6750348B1, “Chemokine receptor binding heterocyclic compounds” (AnorMED, Inc., priority 1999, dated 2004).

Broadly, the EC50 is the concentration giving half of the maximal effect.

Read-outs that look alike come from different tables or passages of the source. A value given as a limit tells only on which side of the number the result lay.

In the assay the test system is HIV-1 NL4.3 or IIIB. Description: Inhibition of HIV-1 (NL4.3 or IIIB) replication in MT-4 cells (MTT). It is filed as cell-based. The conditions noted are these: Human immunodeficiency virus 1, IIIB. Here is the method: Compounds were tested for their ability to inhibit HIV-1 replication in MT-4 cells or PBMC's (peripheral blood mononucleocytes) using published procedures (for example, see: Labrosse et al. J. Virol. 1998, 6381-6388; Simmons et al. J. Virol. 1998, 8453-8457; Donzella et al. Nature Medicine 1998, 72-77; Schols et al. J. Exp. Med. 1997, 1383-1388; De Clercq et al. Antiviral Res. 1997, 147-156; and Bridger et al. U.S. patent application Ser. No. 09/111,895). In addition to the above references, experimental methods for performing anti-viral assays can also be found in: Bridger et al. J. Med. Chem. 1995, 38, 366-378; Bridger et al. J. Med. Chem. 1996, 39, 109-119; Bridger et al. U.S. Pat. No. 5,698,546; Bridger et al. U.S. Pat. No. 5,583,131; Bridger et al. U.S. Pat. No. 5,817,807; De Clercq et al. Antimicrob. Agents and Chemother. 1994, 38, 668-674.
1. The HIV-1 strains NL4.3 and IIIB are T-tropic strains that exclusively use CXCR4 as the co-receptor for entry into cells. MT-4 Cells express CXCR4 but not CCR5.
Inhibition of HIV-1 NL4.3 (or IIIB) replication assays were performed as previously described (Bridger et al. J. Med. Chem. 1999, 42, 3971-3981; De Clercq et al. Proc. Natl. Acad. Sci, 1992, 89, 5286-5290; De Clercq et al. Antimicrob. Agents Chemother. 1994, 38, 668-674; Bridger et al. J. Med. Chem. 1995, 38, 366-378). Anti-HIV activity and cytotoxicity measurements were carried out in parallel. They were based on the viability of MT-4 cells that had been infected with HIV in the presence of various concentrations of the test compounds. After the MT-4 cells were allowed to proliferate for 5 days, the number of viable cells was quantified by a tetrazolium-based calorimetric 3-(4,5-dimethylthiazol-2-yl)-2,5-diphenyltetrazolium bromide (MTT) procedure in 96-well microtrays. In all of these assays, viral input (viral multiplicity of infection, MOI) was 0.01, or 100 times the 50% cell culture infective dose (CCID50). The EC50 was defined as the concentration required to protect 50% of the virus-infected cells against viral cytopathicity.

The mark [1] stands for this setting: MT4, read-out: EC50, inhibition of HIV-1 NLA.3 or IIIB replication.
The mark [2] stands for this setting: MT4, read-out: EC50, inhibition of HIV-1 NL4.3 or IIIB replication.

As for `Oc1ccccc1CN(Cc1ccc(CNCc2ccccn2)cc1)C1CCCc2cccnc21` (centres unmarked) [Example 139, N-[(2-hydroxyphenyl)methyl]-N′-(2-pyridinylmethyl)-N-(5,6,7,8-tetrahydro-8-quinolinyl)-1,4-benzenedimethanamine], the EC50 under setting [1] is < 20 µM.

In the case of `c1ccc(CCCN(Cc2ccc(CNCc3ccccn3)cc2)C2CCCc3cccnc32)cc1` (centres unmarked) [Example 70, N-(2-pyridinylmethyl)-N′-(3-phenylpropyl)-N′-(5,6,7,8-tetrahydro-8-quinolinyl)-1,4-benzenedimethanamine], the EC50 under setting [2] is < 20 µg/mL.

For `c1ccc(CNCc2ccc(CN(Cc3ccc4ccccc4n3)C3CCCCc4cccnc43)cc2)nc1` (centres unmarked) [Example 158, N-(2-quinolylmethyl)-N′-(2-pyridinylmethyl)-N-(6,7,8,9-tetrahydro-5H-cyclohepta[b]pyridin-9-yl)-1,4-benzenedimethanamine], the EC50 under setting [1] was < 20 µM.

`N#Cc1cccc(CN(Cc2ccc(CNCc3ccccn3)cc2)C2CCCc3cccnc32)c1` (centres unmarked) [Example 121, N-[(3-cyanophenyl)methyl]-N′-(2-pyridinylmethyl)-N-(5,6,7,8-tetrahydro-8-quinolinyl)-1,4-benzenedimethanamine]: the EC50 under setting [1] was < 20 µM.

For the compound `COc1cc(CN(Cc2ccc(CNCc3ccccn3)cc2)C2CCCc3cccnc32)cc2c1OCO2` (centres unmarked) [Example 140, N-[(3-methoxy-4,5-methylenedioxyphenyl)methyl]-N′-(2-pyridinylmethyl)-N-(5,6,7,8-tetrahydro-8-quinolinyl)-1,4-benzenedimethanamine], under setting [1], the EC50 was < 20 µM.

On to `FC(F)Oc1ccccc1CN(Cc1ccc(CNCc2ccccn2)cc1)C1CCCCc2cccnc21` (centres unmarked) [Example 126, N-[(2-difluoromethoxyphenyl)methyl]-N′-(2-pyridinylmethyl)-N-(6,7,8,9-tetrahydro-5H-cyclohepta[b]pyridin-9-yl)-1,4-benzenedimethanamine], for which the concentration for a half-maximal effect (EC50) under setting [1] was < 20 µM.

Turning to `CC(=O)Nc1ccc(CN(Cc2ccc(CNCc3ccccn3)cc2)C2CCCc3cccnc32)cc1` (centres unmarked) [Example 102, N-[(4-acetamidophenyl)methyl]-N′-(2-pyridinylmethyl)-N-(5,6,7,8-tetrahydro-8-quinolinyl)-1,4-benzenedimethanamine], under setting [1], the EC50 was < 20 µM.

For `c1ccc(CNCc2ccc(CNC3CCCc4ccccc43)cc2)nc1` (centres unmarked) [Example 4, N-(2-pyridinylmethyl)-N′-(1,2,3,4-tetrahydro-1-naphthalenyl)-1,4-benzenedimethanamine], the EC50 under setting [2] is < 20 µg/mL.

As to `c1ccc(CNCc2ccc(CN(Cc3cccnc3)C3CCCCc4cccnc43)cc2)nc1` (centres unmarked) [Example 113, N-(3-pyridinylmethyl)-N′-(2-pyridinylmethyl)-N-(6,7,8,9-tetrahydro-5H-cyclohepta[b]pyridin-9-yl)-1,4-benzenedimethanamine], the EC50 under setting [1] is < 20 µM.

Take `Fc1cccc(F)c1CN(Cc1ccc(CNCc2ccccn2)cc1)C1CCCc2cccnc21` (centres unmarked) [Example 125, N-[(2,6-difluorophenyl)methyl]-N′-(2-pyridinylmethyl)-N-(5,6,7,8-tetrahydro-8-quinolinyl)-1,4-benzenedimethanamine]: under setting [1], the concentration for a half-maximal effect (EC50) was < 20 µM.

In the case of `Cn1cccc1CN(Cc1ccc(CNCc2ccccn2)cc1)C1CCCc2cccnc21` (centres unmarked) [Example 138, N-(1-methylpyrrol-2-ylmethyl)-N′-(2-pyridinylmethyl)-N-(5,6,7,8-tetrahydro-8-quinolinyl)-1,4-benzenedimethanamine], under setting [1], the EC50 was < 20 µM.

As to `COc1cc(CN(Cc2ccc(CNCc3ccccn3)cc2)C2CCCCc3cccnc32)cc2c1OCO2` (centres unmarked) [Example 119, N-[(3-methoxy-4,5-methylenedioxyphenyl)methyl]-N′-(2-pyridinylmethyl)-N-(6,7,8,9-tetrahydro-5H-cyclohepta[b]pyridin-9-yl)-1,4-benzenedimethanamine], the EC50 under setting [1] is < 20 µM.

With `c1ccc(CNCc2ccc(CNC3CCCc4cccnc43)cc2)nc1` (centres unmarked) [Example 2, N-(2-pyridinylmethyl)-N′-(5,6,7,8-tetrahydro-8-quinolinyl)-1,4-benzenedimethanamine], the EC50 under setting [2] was < 20 µg/mL.

As for `c1ccc(CNCc2ccc(CN(Cc3cccnc3)C3CCCc4cccnc43)cc2)nc1` (centres unmarked) [Example 141, N-(3-pyridinylmethyl)-N′-(2-pyridinylmethyl)-N-(5,6,7,8-tetrahydro-8-quinolinyl)-1,4-benzenedimethanamine], under setting [1], the EC50 was < 20 µM.

`c1ccc(CNCc2ccc(CNC3CCCCc4cccnc43)cc2)nc1` (centres unmarked) [Example 1, N-(2-pyridinylmethyl)-N′-(6,7,8,9-tetrahydro-5H-cyclohepta[b]pyridin-9-yl)-1,4-benzenedimethanamine]: the EC50 under setting [2] was < 20 µg/mL.

Consider `Fc1cccc(F)c1CN(Cc1ccc(CNCc2ccccn2)cc1)C1CCCCc2cccnc21` (centres unmarked) [Example 124, N-[(2,6-difluorophenyl)methyl]-N′-(2-pyridinylmethyl)-N-(6,7,8,9-tetrahydro-5H-cyclohepta[b]pyridin-9-yl)-1,4-benzenedimethanamine], for which the concentration for a half-maximal effect (EC50) under setting [1] was < 20 µM.

As to `c1ccc(CNCc2ccc(CN(Cc3nc4ccccc4[nH]3)C3CCCc4cccnc43)cc2)nc1` (centres unmarked) [Example 61, N-(2-pyridinylmethyl)-N′-(1H-benzimidazol-2-ylmethyl)-N′-(5,6,7,8-tetrahydro-8-quinolinyl)-1,4-benzenedimethanamine], the EC50 under setting [2] is < 20 µg/mL.

Take `Cn1c(CN(Cc2ccc(CNCc3ccccn3)cc2)C2CCCc3cccnc32)nc2ccccc21` (centres unmarked) [Example 144, N-(1-methylbenzimidazol-2-ylmethyl)-N′-(2-pyridinylmethyl)-N-(5,6,7,8-tetrahydro-8-quinolinyl)-1,4-benzenedimethanamine]: the EC50 under setting [1] was < 20 µM.

For `CCCOc1ccc(CN(Cc2ccc(CNCc3ccccn3)cc2)C2CCCCc3cccnc32)cc1` (centres unmarked) [Example 116, N-[(4-propoxyphenyl)methyl]-N′-(2-pyridinylmethyl)-N-(6,7,8,9-tetrahydro-5H-cyclohepta[b]pyridin-9-yl)-1,4-benzenedimethanamine], under setting [1], the EC50 is < 20 µM.

As to `c1ccc(Oc2ccc(CN(Cc3ccc(CNCc4ccccn4)cc3)C3CCCCc4cccnc43)cc2)cc1` (centres unmarked) [Example 103, N-[(4-phenoxyphenyl)methyl]-N′-(2-pyridinylmethyl)-N-(6,7,8,9-tetrahydro-5H-cyclohepta[b]pyridin-9-yl)-1,4-benzenedimethanamine], the EC50 under setting [1] is < 20 µM.

As to `CCc1ccc(CN(Cc2ccc(CNCc3ccccn3)cc2)C2CCCc3cccnc32)s1` (centres unmarked) [Example 123, N-(5-ethylthiophene-2-ylmethyl)-N′-(2-pyridinylmethyl)-N-(5,6,7,8-tetrahydro-8-quinolinyl)-1,4-benzenedimethanamine], the EC50 under setting [1] was < 20 µM.

Turning to `c1ccc(CNCc2ccc(CN(Cc3ccc4c(c3)OCO4)C3CCCc4cccnc43)cc2)nc1` (centres unmarked) [Example 112, N-[(3,4-methylenedioxyphenyl)methyl]-N′-(2-pyridinylmethyl)-N-(5,6,7,8-tetrahydro-8-quinolinyl)-1,4-benzenedimethanamine], the EC50 under setting [1] was < 20 µM.

`O=C(NCCN(Cc1ccc(CNCc2ccccn2)cc1)C1CCCc2cccnc21)c1ccc2ccccc2c1` (centres unmarked) [Example 19, N-(2-pyridinylmethyl)-N′-(2-(2-naphthoyl)aminoethyl)-N′-(5,6,7,8-tetrahydro-8-quinolinyl)-1,4-benzenedimethanamine]: under setting [2], the EC50 is < 20 µg/mL.

Regarding `Fc1ccc(CN(Cc2ccc(CNCc3ccccn3)cc2)C2CCCc3cccnc32)c(F)c1` (centres unmarked) [Example 137, N-[(2,4-difluorophenyl)methyl]-N′-(2-pyridinylmethyl)-N-(5,6,7,8-tetrahydro-8-quinolinyl)-1,4-benzenedimethanamine], the EC50 under setting [1] was < 20 µM.

For `COc1cccc(CN(Cc2ccc(CNCc3ccccn3)cc2)C2CCCc3cccnc32)c1OC` (centres unmarked) [Example 95, N-[(2,3-dimethoxyphenyl)methyl]-N′-(2-pyridinylmethyl)-N-(5,6,7,8-tetrahydro-8-quinolinyl)-1,4-benzenedimethanamine], the EC50 under setting [1] is < 20 µM.

For `c1ccc(CCN(Cc2ccc(CNCc3ccccn3)cc2)C2CCCc3cccnc32)cc1` (centres unmarked) [Example 69, N-(2-pyridinylmethyl)-N′-(2-phenylethyl)-N′-(5,6,7,8-tetrahydro-8-quinolinyl)-1,4-benzenedimethanamine], under setting [2], the EC50 was < 20 µg/mL.
